The values below come from PubChem BioAssay (NCI).

Test systems include SNB-75 CNS; RPMI-8226 leukemia; ACHN renal; A549 NSCLC; UACC-62 melanoma; 786-0 renal; OVCAR-8 ovarian; SF-295 CNS; OVCAR-5 ovarian; SK-MEL-5 melanoma; HS 578T breast; HOP-92 NSCLC; HCT-15 colon; OVCAR-4 ovarian; KM12 colon; NCI-H522 lung; NCI-H23 lung; MALME-3M melanoma.
What all share (assay): inhibition of tumour cell growth, NCI panel, 48 h

Each structure is given as a SMILES string.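 Test compounds were applied to cells in 96-well plates for 48 hours at 5 doses. Abbreviation: GI50, concentration required for 50% inhibition of growth. TGI marks complete inhibition of growth.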

Regarding `Cc1c(C#N)c2ccccc2c2nc3ccccc3n12`, the TGI with SNB-75 CNS, in the assay on RPMI-8226 leukemia, in the assay on ACHN renal, in the assay with A549 NSCLC, with UACC-62 melanoma and with 786-0 renal was over 100 µM each time. Also, the TGI in the assay on OVCAR-8 ovarian is over 100 µM; in the assay with SF-295 CNS it was over 100 µM; in the assay on OVCAR-5 ovarian, over 100 µM; in the assay on SK-MEL-5 melanoma, 36.5 µM; with HS 578T breast, over 100 µM; with HOP-92 NSCLC, over 100 µM. For the same compound, the TGI in the assay with HCT-15 colon, with OVCAR-4 ovarian, with KM12 colon and in the assay with NCI-H522 lung was over 100 µM in each case.

Consider `CCOCN1COCN=C1NC#N`, for which the TGI with SNB-75 CNS, in the assay on ACHN renal, in the assay on A549 NSCLC, with UACC-62 melanoma, with NCI-H23 lung and in the assay with 786-0 renal was over 100 µM in each case. For the same compound, the TGI in the assay with OVCAR-8 ovarian, with SF-295 CNS, with OVCAR-5 ovarian, with SK-MEL-5 melanoma, with HOP-92 NSCLC and in the assay with HCT-15 colon was over 100 µM each time. For the same compound, the TGI in the assay on OVCAR-4 ovarian, in the assay on KM12 colon, in the assay on MALME-3M melanoma and with NCI-H522 lung was over 100 µM in each case.

Regarding `Cc1ccccc1C1OC(=O)c2ccccc21` (stereo not given), the TGI with SNB-75 CNS, in the assay with ACHN renal, with A549 NSCLC, in the assay with UACC-62 melanoma, with NCI-H23 lung and with 786-0 renal was over 100 µM each time. Further, the TGI in the assay with OVCAR-8 ovarian, with OVCAR-5 ovarian, in the assay with SK-MEL-5 melanoma, in the assay with HCT-15 colon, in the assay with KM12 colon and with MALME-3M melanoma was over 100 µM each time. Also, the TGI in the assay on NCI-H522 lung is over 100 µM.

Take `COc1ccc(/C(Cl)=C(/c2ccc(O)cc2)c2ccc(OCCN(C)C)cc2)cc1`: the TGI was determined as 23.3 µM with SNB-75 CNS; 21.6 µM in the assay with RPMI-8226 leukemia; 27.8 µM in the assay with ACHN renal; 26.7 µM in the assay with A549 NSCLC; 32.9 µM in the assay with UACC-62 melanoma; 29.1 µM with NCI-H23 lung. Moreover, the TGI in the assay with 786-0 renal is 18.8 µM; in the assay with OVCAR-8 ovarian it was 28.9 µM; in the assay on SF-295 CNS, 16.3 µM; in the assay with OVCAR-5 ovarian it was 26.1 µM; in the assay on SK-MEL-5 melanoma, 16.9 µM; with HCT-15 colon it was 23.3 µM. In addition, the TGI turned out to be 27.1 µM in the assay on OVCAR-4 ovarian, 21.1 µM in the assay with KM12 colon, 14.4 µM in the assay on MALME-3M melanoma and 25.1 µM with NCI-H522 lung.

For `CCCCCCCc1cc(OC(=O)c2c(C)cc(OC)cc2O)cc(O)c1C(=O)O`, the TGI stood at 36.1 µM in the assay on SNB-75 CNS; 74 µM with RPMI-8226 leukemia; 62.8 µM in the assay on ACHN renal; 83.9 µM in the assay on A549 NSCLC; 43.7 µM with UACC-62 melanoma; 43.1 µM in the assay with NCI-H23 lung. Besides, the TGI was determined as 36.8 µM with 786-0 renal; 77.9 µM in the assay on OVCAR-8 ovarian; 50 µM in the assay with SF-295 CNS; 32.1 µM in the assay with OVCAR-5 ovarian; 40.7 µM with SK-MEL-5 melanoma; 41.8 µM with HOP-92 NSCLC. In addition, the TGI was 78.2 µM in the assay on OVCAR-4 ovarian, 46.2 µM in the assay on KM12 colon, 37.6 µM in the assay on MALME-3M melanoma and 48.3 µM in the assay with NCI-H522 lung.

Regarding `CCCCCCNC(=O)c1cc(CCc2cc(O)ccc2O)ccc1O`, the TGI in the assay on SNB-75 CNS was found to be 14.4 µM; in the assay on ACHN renal it was 7.68 µM; in the assay on A549 NSCLC, 36.3 µM; in the assay with UACC-62 melanoma, 10.1 µM; with NCI-H23 lung, 28.5 µM; in the assay with 786-0 renal, 4.26 µM. Also, the TGI worked out at 17.6 µM with OVCAR-8 ovarian; 31.3 µM in the assay on SF-295 CNS; 19.3 µM in the assay on OVCAR-5 ovarian; 15.6 µM in the assay with SK-MEL-5 melanoma; 26.4 µM in the assay with HS 578T breast; 3.87 µM in the assay with HOP-92 NSCLC. In addition, the TGI is 12.8 µM in the assay with HCT-15 colon; 6.75 µM in the assay on OVCAR-4 ovarian; 39.6 µM in the assay with KM12 colon; 6.47 µM in the assay on MALME-3M melanoma; 3.05 µM in the assay on NCI-H522 lung. Moreover, the GI50 in the assay with UACC-62 melanoma was 3.26 µM.

On to `C#CCNC(=O)NCCCC(NC(C)=O)C(=O)NCc1ccccc1` (stereo not given), for which the TGI in the assay with SNB-75 CNS, in the assay with RPMI-8226 leukemia, in the assay with ACHN renal, with A549 NSCLC, in the assay with UACC-62 melanoma and in the assay with NCI-H23 lung was over 100 µM each time. Besides, the TGI in the assay with 786-0 renal, with OVCAR-8 ovarian, in the assay on SF-295 CNS, in the assay with OVCAR-5 ovarian, in the assay with SK-MEL-5 melanoma and in the assay with HOP-92 NSCLC was over 100 µM in each case. The TGI in the assay with HCT-15 colon, with OVCAR-4 ovarian, with KM12 colon, in the assay with MALME-3M melanoma and with NCI-H522 lung was over 100 µM each time.

Turning to `COc1ccc(/C=C/c2sc3ccccc3[n+]2CCCCI)cc1OC`, the TGI in the assay on SNB-75 CNS, in the assay with RPMI-8226 leukemia, in the assay on ACHN renal, in the assay on A549 NSCLC, in the assay with UACC-62 melanoma and in the assay on NCI-H23 lung was over 10 µM each time. For the same compound, the TGI with 786-0 renal, in the assay with OVCAR-8 ovarian, in the assay on SF-295 CNS, in the assay on OVCAR-5 ovarian, in the assay with SK-MEL-5 melanoma and in the assay on HS 578T breast was over 10 µM in each case. Moreover, the TGI in the assay with HOP-92 NSCLC, in the assay with HCT-15 colon, in the assay on OVCAR-4 ovarian, with KM12 colon, with MALME-3M melanoma and in the assay with NCI-H522 lung was over 10 µM throughout.
